According to patent US20090280067A1, “CRYSTAL FORM OF 8-HYDROXY-5-[(1R)-1-HYDROXY-2-[[(1R)-2-(4-METHOXYPHENYL)-1-METHYLETHYL]AMINO]ETHYL]-2(1H)-QUINOLINONE MONOHYDROCHLORIDE” (Chiesi Farmaceutici S.p.A., priority 2008, published 2009):

Assay: Stability studies: storage at room temperature under different relative humidity conditions, checked by XRPD pattern
Assay type: physicochemical
Conditions: 25° C., 40%, 60%, 80%, 30%, 40% RH, 1 week each
Description: The XRPD analyses were carried out on a PANanalytical X'pert Pro X-ray powder diffractometer using Cu Kα radiation. The instrument was equipped with a X'Celerator detector. A theta-two theta continuous scan from 2.5 degrees 2 theta to 40 degrees 2 theta was used. Each sample is prepared for analysis by placing it in a quartz sample holder. The XPRD patterns are reported in terms of degrees 2 theta (°2θ, accuracy ±0.1°), diffraction peak intensity (height, [cts]), full width at half maximum (FWHM, [°2θ]), interatomic spacing in angstroms (d-spacing, [Å]), and relative intensities (%). The relative intensity is recorded as the ratio of the peak intensity to that of the most intense peak.
In order to check its thermodynamic stability, the CHF 4226 crystal form E was stored at room temperature under different relative humidity (RH) conditions: • 40% RH. and 25° C. for 1 week • 60% RH. and 25° C. for 1 week • 80% RH and 25° C. for 1 week • 60% RH and 25° C. for 1 week • 40% RH and 25° C. for 1 week • 30% RH and 25° C. for 1 week • 40% RH and 25° C. for 1 week. The thermodynamic stability of all the samples was checked by recording their XPRD pattern.

COc1ccc(C[C@@H](C)NC[C@H](O)c2ccc(O)c3[nH]c(=O)ccc23)cc1.Cl [CHF 4226 crystal form E, 8-hydroxy-5-[(1R)-1-hydroxy-2-[[(1R)-2-(4-methoxyphenyl)-1-methylethyl]amino]ethyl]-2(1H)-quinolinone monohydrochloride]
thermodynamic stability (XPRD pattern) after storage: stable features under all stability screening conditions
